Measured values published in ChEMBL document CHEMBL1134112, “[3H]MFZ 2-12: a novel radioligand for the dopamine transporter” (Bioorg Med Chem Lett, 2001).

Target: Sodium-dependent dopamine transporter (Homo sapiens, UniProt Q01959)
Assay: Ability to inhibit human dopamine uptake by the human dopamine transporter in EM4 cells stably infected with Flag HA-hDAT
Assay type: functional, cell-based

Sodium-dependent dopamine transporter, sequence (Q01959 whole entry): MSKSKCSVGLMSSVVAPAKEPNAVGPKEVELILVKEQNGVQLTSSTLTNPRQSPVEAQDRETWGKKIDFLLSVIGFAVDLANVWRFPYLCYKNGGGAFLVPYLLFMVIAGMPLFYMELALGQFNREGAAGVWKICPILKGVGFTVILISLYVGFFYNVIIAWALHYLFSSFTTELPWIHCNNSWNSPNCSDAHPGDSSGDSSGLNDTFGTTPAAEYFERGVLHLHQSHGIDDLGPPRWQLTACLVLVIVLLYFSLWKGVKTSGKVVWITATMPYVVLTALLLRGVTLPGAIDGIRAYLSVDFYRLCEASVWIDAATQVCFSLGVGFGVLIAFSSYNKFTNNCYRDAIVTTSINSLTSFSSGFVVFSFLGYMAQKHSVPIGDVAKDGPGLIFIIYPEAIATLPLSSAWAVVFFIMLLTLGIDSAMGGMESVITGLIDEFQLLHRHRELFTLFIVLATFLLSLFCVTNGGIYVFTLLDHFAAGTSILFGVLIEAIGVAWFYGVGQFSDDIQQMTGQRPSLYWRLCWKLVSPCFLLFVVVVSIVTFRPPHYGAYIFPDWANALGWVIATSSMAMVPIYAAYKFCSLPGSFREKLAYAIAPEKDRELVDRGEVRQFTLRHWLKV

Structure (SMILES) | IC50
COC(=O)[C@@H]1C2CCC(C[C@@H]1c1ccc(Cl)c(Cl)c1)N2C (some centres not stated) | 1.1 nM
COC(=O)[C@@H]1C2CCC(C[C@@H]1c1ccc(Cl)c(Cl)c1)N2 (some centres not stated) | 1.4 nM
